Reference: patent US20070293446A1, “Compositions comprising C-13 alkoxyether macrolide compounds and phenylpyrazole compounds” (priority 1996, published 2007)

Format: physicochemical
From the text: The solvent will be used in proportion with the concentration of the compound I and its solubility in this solvent. […] It will be sought to have the lowest possible volume. The vehicle makes up the difference to 100%.

N#Cc1nn(-c2c(Cl)cc(C(F)(F)F)cc2Cl)c(N)c1[S+]([O-])C(F)(F)F (stereo not shown) [fipronil, 1-[2,6—Cl2-4—CF3 phenyl]-3—CN-4-[SO-CF3]-5—NH2 pyrazole]
Solubility: 4.3 % m/V
